Measurements as given in US20120122860A1, “SOLID FORMS OF SULFONAMIDES AND AMINO ACIDS” (Plexxikon, Inc., priority 2009, published 2012).

Key:
[1] = biological target: T1, A-Raf (Homo sapiens, UniProt P10398); experiment: Kinase activity assay, A-Raf
T1 sequence (P10398 1-606): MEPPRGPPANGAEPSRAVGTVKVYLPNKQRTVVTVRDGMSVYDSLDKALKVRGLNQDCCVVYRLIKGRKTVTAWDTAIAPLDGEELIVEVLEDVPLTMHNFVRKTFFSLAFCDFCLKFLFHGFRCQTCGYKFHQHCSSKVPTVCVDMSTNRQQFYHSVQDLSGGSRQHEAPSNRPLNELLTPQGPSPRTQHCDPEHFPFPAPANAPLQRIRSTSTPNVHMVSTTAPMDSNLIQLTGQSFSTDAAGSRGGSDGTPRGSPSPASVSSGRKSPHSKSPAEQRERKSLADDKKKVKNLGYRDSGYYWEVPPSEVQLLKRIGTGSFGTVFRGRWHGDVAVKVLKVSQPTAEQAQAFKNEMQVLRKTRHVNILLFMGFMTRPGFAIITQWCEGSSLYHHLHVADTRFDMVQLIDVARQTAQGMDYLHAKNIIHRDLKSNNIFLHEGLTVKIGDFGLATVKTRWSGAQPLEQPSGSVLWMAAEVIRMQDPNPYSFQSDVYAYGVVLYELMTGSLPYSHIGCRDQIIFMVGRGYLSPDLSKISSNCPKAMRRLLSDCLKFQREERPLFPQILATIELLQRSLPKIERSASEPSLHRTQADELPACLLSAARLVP

[2] = biological target: Fms (Homo sapiens, UniProt P07333); experiment: Kinase activity assay, Fms
Chain of Fms (P07333 20-972): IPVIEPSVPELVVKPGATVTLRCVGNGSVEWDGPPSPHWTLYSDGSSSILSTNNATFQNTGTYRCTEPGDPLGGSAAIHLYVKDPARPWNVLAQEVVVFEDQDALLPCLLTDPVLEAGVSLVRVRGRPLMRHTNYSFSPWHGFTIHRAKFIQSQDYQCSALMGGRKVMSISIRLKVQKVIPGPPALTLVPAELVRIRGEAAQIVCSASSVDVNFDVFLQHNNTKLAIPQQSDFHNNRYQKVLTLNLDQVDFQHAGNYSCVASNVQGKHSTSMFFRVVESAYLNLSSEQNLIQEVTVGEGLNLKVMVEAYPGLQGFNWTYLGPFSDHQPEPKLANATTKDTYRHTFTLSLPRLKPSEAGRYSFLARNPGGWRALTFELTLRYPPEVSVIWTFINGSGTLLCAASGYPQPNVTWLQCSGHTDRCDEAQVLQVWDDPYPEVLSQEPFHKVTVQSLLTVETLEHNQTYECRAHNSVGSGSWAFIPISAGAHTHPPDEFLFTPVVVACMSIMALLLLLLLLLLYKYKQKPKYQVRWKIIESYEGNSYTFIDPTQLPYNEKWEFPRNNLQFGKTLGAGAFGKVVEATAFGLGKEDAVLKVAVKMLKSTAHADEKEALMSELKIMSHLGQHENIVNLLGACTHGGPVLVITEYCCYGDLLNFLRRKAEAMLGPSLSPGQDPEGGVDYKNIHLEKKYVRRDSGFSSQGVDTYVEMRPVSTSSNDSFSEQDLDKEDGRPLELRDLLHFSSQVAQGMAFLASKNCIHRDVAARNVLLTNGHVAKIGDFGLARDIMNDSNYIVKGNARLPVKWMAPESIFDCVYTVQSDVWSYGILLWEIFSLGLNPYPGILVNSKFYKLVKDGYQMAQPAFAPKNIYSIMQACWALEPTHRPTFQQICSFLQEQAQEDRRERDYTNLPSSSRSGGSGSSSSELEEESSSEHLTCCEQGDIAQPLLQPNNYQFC

[3] = biological target: B-Raf (Homo sapiens, UniProt P15056); experiment: Kinase activity assay, B-Raf; type: biochemical; details: read-out: activity toward kinase B-Raf, IC50
Chain of B-Raf (P15056 whole entry): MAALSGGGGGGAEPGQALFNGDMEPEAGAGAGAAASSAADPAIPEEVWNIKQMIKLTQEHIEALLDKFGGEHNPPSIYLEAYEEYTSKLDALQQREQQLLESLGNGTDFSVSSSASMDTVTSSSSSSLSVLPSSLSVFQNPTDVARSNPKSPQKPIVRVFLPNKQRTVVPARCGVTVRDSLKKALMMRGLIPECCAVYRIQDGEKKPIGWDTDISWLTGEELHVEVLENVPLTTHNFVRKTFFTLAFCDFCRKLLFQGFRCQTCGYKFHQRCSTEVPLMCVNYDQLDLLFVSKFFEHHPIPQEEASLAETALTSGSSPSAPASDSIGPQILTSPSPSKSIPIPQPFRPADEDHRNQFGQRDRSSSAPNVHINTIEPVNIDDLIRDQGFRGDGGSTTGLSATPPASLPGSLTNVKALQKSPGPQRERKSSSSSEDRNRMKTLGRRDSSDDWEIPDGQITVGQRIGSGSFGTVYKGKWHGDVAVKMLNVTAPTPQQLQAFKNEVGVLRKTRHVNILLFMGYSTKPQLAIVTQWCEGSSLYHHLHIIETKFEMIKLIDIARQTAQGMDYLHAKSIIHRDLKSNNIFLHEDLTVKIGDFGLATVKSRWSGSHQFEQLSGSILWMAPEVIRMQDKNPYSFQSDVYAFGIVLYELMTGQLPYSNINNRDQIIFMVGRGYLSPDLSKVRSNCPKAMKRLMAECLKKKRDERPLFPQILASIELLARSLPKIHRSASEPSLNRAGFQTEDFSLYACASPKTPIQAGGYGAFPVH

[4] = biological target: MAP4K4 (Homo sapiens, UniProt O95819); experiment: Kinase activity assay, MAP4K4
Chain of MAP4K4 (O95819 whole entry): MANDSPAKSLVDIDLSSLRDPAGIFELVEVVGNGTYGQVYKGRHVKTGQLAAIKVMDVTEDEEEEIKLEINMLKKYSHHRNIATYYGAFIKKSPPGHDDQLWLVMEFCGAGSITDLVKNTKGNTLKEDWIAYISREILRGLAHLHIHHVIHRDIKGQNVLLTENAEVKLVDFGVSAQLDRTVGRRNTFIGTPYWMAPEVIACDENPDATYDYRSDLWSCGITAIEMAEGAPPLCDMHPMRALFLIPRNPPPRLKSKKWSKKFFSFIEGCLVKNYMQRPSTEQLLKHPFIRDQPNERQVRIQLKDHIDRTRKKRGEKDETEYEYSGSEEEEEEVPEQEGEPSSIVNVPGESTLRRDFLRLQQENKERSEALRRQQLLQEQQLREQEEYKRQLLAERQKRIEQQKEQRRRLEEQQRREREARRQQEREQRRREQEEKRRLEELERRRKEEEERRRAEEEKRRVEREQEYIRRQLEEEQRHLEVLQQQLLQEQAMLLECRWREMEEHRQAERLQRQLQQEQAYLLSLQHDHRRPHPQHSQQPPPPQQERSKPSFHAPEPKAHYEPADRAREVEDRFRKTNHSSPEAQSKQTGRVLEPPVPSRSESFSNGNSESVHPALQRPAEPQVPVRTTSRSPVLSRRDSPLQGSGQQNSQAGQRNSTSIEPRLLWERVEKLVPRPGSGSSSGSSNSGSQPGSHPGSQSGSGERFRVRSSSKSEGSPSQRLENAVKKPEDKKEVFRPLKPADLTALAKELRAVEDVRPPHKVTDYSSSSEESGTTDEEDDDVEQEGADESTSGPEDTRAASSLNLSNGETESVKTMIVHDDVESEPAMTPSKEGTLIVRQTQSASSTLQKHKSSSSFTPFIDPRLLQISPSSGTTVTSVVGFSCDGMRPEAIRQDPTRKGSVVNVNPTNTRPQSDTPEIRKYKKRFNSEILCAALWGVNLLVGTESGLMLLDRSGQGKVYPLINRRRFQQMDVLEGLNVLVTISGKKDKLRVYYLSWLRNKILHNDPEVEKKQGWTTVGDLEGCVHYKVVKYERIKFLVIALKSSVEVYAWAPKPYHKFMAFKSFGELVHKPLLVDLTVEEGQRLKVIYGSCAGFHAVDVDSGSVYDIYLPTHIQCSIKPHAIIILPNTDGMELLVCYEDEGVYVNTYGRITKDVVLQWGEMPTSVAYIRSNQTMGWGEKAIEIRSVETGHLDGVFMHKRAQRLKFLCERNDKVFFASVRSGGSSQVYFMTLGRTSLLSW

[5] = biological target: Kdr (Homo sapiens, UniProt P35968); experiment: Kinase activity assay, Kdr
Chain of Kdr (P35968 20-1356): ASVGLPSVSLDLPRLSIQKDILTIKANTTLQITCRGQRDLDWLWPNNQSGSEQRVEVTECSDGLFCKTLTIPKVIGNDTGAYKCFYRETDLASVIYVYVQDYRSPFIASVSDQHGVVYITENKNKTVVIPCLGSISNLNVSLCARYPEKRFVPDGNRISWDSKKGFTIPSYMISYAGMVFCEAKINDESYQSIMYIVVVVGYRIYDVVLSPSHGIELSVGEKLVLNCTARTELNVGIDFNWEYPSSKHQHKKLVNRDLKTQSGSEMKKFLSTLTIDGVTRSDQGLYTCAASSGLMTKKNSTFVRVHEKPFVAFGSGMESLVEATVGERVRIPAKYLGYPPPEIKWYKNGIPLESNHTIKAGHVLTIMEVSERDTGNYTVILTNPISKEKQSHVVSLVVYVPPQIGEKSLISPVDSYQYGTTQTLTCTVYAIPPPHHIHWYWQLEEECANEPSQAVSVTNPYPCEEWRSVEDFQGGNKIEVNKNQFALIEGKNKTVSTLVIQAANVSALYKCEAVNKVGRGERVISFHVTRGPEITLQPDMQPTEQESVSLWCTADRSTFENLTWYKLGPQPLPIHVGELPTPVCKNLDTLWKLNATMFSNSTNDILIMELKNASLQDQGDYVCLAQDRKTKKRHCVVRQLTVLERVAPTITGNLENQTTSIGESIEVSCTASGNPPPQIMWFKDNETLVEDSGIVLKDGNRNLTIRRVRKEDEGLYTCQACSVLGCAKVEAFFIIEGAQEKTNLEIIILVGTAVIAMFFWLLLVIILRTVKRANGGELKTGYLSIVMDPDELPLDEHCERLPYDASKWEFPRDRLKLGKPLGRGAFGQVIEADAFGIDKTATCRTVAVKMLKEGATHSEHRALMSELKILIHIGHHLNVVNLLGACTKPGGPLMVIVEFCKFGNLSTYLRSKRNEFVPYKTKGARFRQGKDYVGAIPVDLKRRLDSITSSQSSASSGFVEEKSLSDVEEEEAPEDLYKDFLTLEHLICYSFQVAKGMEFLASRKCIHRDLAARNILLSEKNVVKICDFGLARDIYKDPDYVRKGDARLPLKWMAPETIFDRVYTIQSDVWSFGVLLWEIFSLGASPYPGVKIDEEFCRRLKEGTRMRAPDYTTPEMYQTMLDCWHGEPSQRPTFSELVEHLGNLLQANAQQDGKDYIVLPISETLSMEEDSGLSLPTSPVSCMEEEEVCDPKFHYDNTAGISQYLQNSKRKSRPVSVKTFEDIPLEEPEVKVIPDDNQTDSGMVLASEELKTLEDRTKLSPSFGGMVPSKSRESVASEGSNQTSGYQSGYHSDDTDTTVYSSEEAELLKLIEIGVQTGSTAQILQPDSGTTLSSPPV

[6] = biological target: Src (Homo sapiens, UniProt P12931); experiment: Kinase activity assay, Src
Chain of Src (P12931 whole entry): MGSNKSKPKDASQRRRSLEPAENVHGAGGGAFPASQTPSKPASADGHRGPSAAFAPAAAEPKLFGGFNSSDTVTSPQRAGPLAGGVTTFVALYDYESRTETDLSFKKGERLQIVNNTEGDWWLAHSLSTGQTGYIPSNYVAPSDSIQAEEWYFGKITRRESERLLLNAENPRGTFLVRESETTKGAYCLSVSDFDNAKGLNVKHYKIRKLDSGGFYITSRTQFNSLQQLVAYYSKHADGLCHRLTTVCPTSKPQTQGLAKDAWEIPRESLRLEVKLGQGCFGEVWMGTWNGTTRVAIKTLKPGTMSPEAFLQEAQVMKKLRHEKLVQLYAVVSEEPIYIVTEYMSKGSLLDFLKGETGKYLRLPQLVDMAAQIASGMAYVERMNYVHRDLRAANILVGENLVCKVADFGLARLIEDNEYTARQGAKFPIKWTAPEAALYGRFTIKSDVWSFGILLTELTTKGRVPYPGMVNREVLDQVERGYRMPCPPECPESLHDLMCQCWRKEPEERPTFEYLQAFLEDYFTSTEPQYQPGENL

[7] = biological target: C-Raf (Homo sapiens, UniProt P04049); experiment: Kinase activity assay, C-Raf
[8] = biological target: B-Raf V600E (Homo sapiens, UniProt P15056, V600E); experiment: Kinase activity assay, B-Raf V600E; type: biochemical; details: read-out: activity toward kinase B-Raf V600E, IC50
Chain of B-Raf V600E (P15056 whole entry V600E): as the sequence (P15056 whole entry) above, with V600E counted along it

[9] = biological target: Kit (Homo sapiens, UniProt P10721); experiment: Kinase activity assay, Kit
[10] = biological target: T2, TEC (Homo sapiens, UniProt P42680); experiment: Kinase activity assay, TEC
T2 sequence (P42680 1-631): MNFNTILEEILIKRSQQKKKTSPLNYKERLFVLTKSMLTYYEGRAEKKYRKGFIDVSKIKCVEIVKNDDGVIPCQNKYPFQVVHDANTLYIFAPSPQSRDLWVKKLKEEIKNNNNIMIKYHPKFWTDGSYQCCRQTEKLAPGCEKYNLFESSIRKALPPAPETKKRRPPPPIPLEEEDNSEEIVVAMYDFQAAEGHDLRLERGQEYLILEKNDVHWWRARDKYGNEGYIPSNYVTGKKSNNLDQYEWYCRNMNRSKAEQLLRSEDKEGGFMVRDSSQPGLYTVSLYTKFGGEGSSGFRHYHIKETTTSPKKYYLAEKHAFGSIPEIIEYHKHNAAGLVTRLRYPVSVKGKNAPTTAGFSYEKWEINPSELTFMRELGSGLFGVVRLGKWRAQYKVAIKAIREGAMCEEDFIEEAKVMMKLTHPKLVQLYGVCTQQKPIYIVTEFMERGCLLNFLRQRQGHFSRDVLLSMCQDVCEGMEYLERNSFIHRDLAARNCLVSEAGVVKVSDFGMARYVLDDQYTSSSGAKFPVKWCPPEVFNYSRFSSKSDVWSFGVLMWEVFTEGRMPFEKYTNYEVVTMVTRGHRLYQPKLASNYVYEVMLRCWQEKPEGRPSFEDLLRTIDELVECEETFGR

Measured: IC50

O=C(c1c(F)ccc(NS(=O)(=O)c2cc(F)ccc2F)c1F)c1c[nH]c2ncc(Cl)cc12 [P-2002, N-[3-(5-Chloro-1H-pyrrolo[2,3-b]pyridine-3-carbonyl)-2,4-difluoro-phenyl]-2,5-difluoro-benzenesulfonamide]
not listed: [10]
≤ 10 µM: all other assays above

COc1cnc2[nH]cc(C(=O)c3c(F)ccc(NS(=O)(=O)c4cc(F)ccc4F)c3F)c2c1 [P-2010, N-[2,4-Difluoro-3-(5-methoxy-1H-pyrrolo[2,3-b]pyridine-3-carbonyl)-phenyl]-2,5-difluoro-benzenesulfonamide]
not listed: [10]
≤ 10 µM: all other assays above

Cc1cnc2[nH]cc(C(=O)c3c(F)ccc(NS(=O)(=O)c4cc(F)ccc4F)c3F)c2c1 [P-2015, N-[2,4-Difluoro-3-(5-methyl-1H-pyrrolo[2,3-b]pyridine-3-carbonyl)-phenyl]-2,5-difluoro-benzenesulfonamide]
not listed: [10]
≤ 10 µM: all other assays above

O=C(c1c(F)ccc(NS(=O)(=O)c2ccccc2F)c1F)c1c[nH]c2nccc(Cl)c12 [P-2017, N-[3-(4-Chloro-1H-pyrrolo[2,3-b]pyridine-3-carbonyl)-2,4-difluoro-phenyl]-2-fluoro-benzenesulfonamide]
not listed: [10]
≤ 10 µM: all other assays above

O=C(c1c(F)ccc(NS(=O)(=O)c2cc(F)ccc2F)c1F)c1c[nH]c2nccc(Cl)c12 [P-2018, N-[3-(4-Chloro-1H-pyrrolo[2,3-b]pyridine-3-carbonyl)-2,4-difluoro-phenyl]-2,5-difluoro-benzenesulfonamide]
not listed: [10]
≤ 10 µM: all other assays above

N#Cc1cnc2[nH]cc(C(=O)c3c(F)ccc(NS(=O)(=O)c4cccnc4)c3F)c2c1 [P-2072, Pyridine-3-sulfonic acid [3-(5-cyano-1H-pyrrolo[2,3-b]pyridine-3-carbonyl)-2,4-difluoro-phenyl]-amide]
≤ 10 µM: [3] | [7] | [8] | [10]

CCCc1ccc(-c2cnc3[nH]cc(C(=O)c4c(F)ccc(NS(=O)(=O)CCC)c4F)c3c2)cn1 [P-2224, Propane-1-sulfonic acid {2,4-difluoro-3-[5-(6-propyl-pyridin-3-yl)-1H-pyrrolo[2,3-b]pyridine-3-carbonyl]-phenyl}-amide]
not listed: [10]
≤ 10 µM: all other assays above

CCCS(=O)(=O)Nc1ccc(F)c(C(=O)c2c[nH]c3ncc(CCC(=O)OC)cc23)c1F [P-2230, 3-{3-[2,6-Difluoro-3-(propane-1-sulfonylamino)-benzoyl]-1H-pyrrolo[2,3-b]pyridin-5-yl}-propionic acid methyl ester]
not listed: [10]
≤ 10 µM: all other assays above

CCCS(=O)(=O)Nc1ccc(F)c(C(=O)c2c[nH]c3ncc(-c4ccc(OCCN5CCOCC5)nc4)cc23)c1F [P-2232, Propane-1-sulfonic acid (2,4-difluoro-3-{5-[6-(2-morpholin-4-yl-ethoxy)-pyridin-3-yl]-1H-pyrrolo[2,3-b]pyridine-3-carbonyl}-phenyl)-amide]
not listed: [10]
≤ 10 µM: all other assays above

CCCS(=O)(=O)Nc1ccc(F)c(C(=O)c2c[nH]c3ncc(-c4ccc(OCCN5CCCC5)nc4)cc23)c1F [P-2233, Propane-1-sulfonic acid (2,4-difluoro-3-{5-[6-(2-pyrrolidin-1-yl-ethoxy)-pyridin-3-yl]-1H-pyrrolo[2,3-b]pyridine-3-carbonyl}-phenyl)-amide]
not listed: [10]
≤ 10 µM: all other assays above

CCCS(=O)(=O)Nc1ccc(F)c(C(=O)c2c[nH]c3ncc(-c4ccc(OCCCN5CCOCC5)nc4)cc23)c1F [P-2236, Propane-1-sulfonic acid (2,4-difluoro-3-{5-[6-(3-morpholin-4-yl-propoxy)-pyridin-3-yl]-1H-pyrrolo[2,3-b]pyridine-3-carbonyl}-phenyl)-amide]
not listed: [10]
≤ 10 µM: all other assays above

CC(C)S(=O)(=O)Nc1ccc(F)c(C(=O)c2c[nH]c3ncc(C#N)cc23)c1F [P-2282, Propane-2-sulfonic acid [3-(5-cyano-1H-pyrrolo[2,3-b]pyridine-3-carbonyl)-2,4-difluoro-phenyl]-amide]
≤ 10 µM: [3] | [7] | [8] | [9] | [10]

O=C(c1c(F)ccc(NS(=O)(=O)CC(F)(F)F)c1F)c1c[nH]c2ncc(Cl)cc12 [P-2339, 2,2,2-Trifluoro-ethanesulfonic acid [3-(5-chloro-1H-pyrrolo[2,3-b]pyridine-3-carbonyl)-2,4-difluoro-phenyl]-amide]
not listed: [9] | [10]
≤ 10 µM: all other assays above

O=C(c1c(F)ccc(NS(=O)(=O)N2CCCC2)c1F)c1c[nH]c2ncc(Cl)cc12 [P-2375, Pyrrolidine-1-sulfonic acid [3-(5-chloro-1H-pyrrolo[2,3-b]pyridine-3-carbonyl)-2,4-difluoro-phenyl]-amide]
not listed: [2] | [10]
≤ 10 µM: all other assays above

N#Cc1cnc2[nH]cc(C(=O)c3cccc(NS(=O)(=O)C4CCCC4)c3F)c2c1 [P-2417, Cyclopentanesulfonic acid [3-(5-cyano-1H-pyrrolo[2,3-b]pyridine-3-carbonyl)-2-fluoro-phenyl]-amide]
≤ 10 µM: [3] | [5] | [7] | [8] | [10]
